Reference: PubChem BioAssay AID330 (DTP/NCI, 2004)
“And” between values parts separate entries of the source, which are not always exact repeats. Equal values may be shown once. Inconclusive results and toxic doses are left out. How the source made its calls: active means survival T/C of 150% or more; inactive means T/C below 125% in these data.

Test system: P388 leukemia ip, CD2F1 mice, survival T/C
Assay: NCI In Vivo Anticancer Drug Screen. Data for tumor model P388 Leukemia (intraperitoneal) in CD2F1 (CDF1) mice
Settings: endpoint: median survival time, higher = longer survival
Summary of the method: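 Mice carrying the transplanted tumor received test compound or vehicle. Survival was recorded in each group, and the value is the treated-group measurement divided by that of the vehicle-treated control group.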

[1] = dose: 50.0 mg/kg/injection, schedule: Q01DX009 (ip), vehicle: saline with Tween-80
[2] = dose: 100.0 mg/kg/injection, schedule: Q01DX009 (ip), vehicle: saline with Tween-80
[3] = dose: 200.0 mg/kg/injection, schedule: Q01DX009 (ip), vehicle: saline with Tween-80
[4] = dose: 60.0 mg/kg/injection, schedule: Q01DX005 (ip), vehicle: saline with Tween-80
[5] = dose: 120.0 mg/kg/injection, schedule: Q01DX005 (ip), vehicle: saline with Tween-80
[6] = dose: 50.0 mg/kg/injection, schedule: Q01DX005 (ip), vehicle: Klucel (hydroxypropylcellulose) (HPC)
[7] = dose: 100.0 mg/kg/injection, schedule: Q01DX005 (ip), vehicle: Klucel (hydroxypropylcellulose) (HPC)
[8] = dose: 200.0 mg/kg/injection, schedule: Q01DX005 (ip), vehicle: Klucel (hydroxypropylcellulose) (HPC)
[9] = dose: 100.0 mg/kg/injection, schedule: Q01DX009 (ip), vehicle: saline
[10] = dose: 25.0 mg/kg/injection, schedule: Q01DX009 (ip), vehicle: saline with Tween-80

Measured: T/C

CC(C)CC(NC(=O)CF)C(=O)O (stereo unspecified)
inactive: dose: 1.25 mg/kg/injection, schedule: Q01DX009 (ip), vehicle: saline with Tween-80 96 % of control | dose: 2.5 mg/kg/injection, schedule: Q01DX009 (ip), vehicle: saline with Tween-80 109 % of control | dose: 5.0 mg/kg/injection, schedule: Q01DX009 (ip), vehicle: saline with Tween-80 124 % of control

CC(C)=NOc1ccccc1[N+](=O)[O-]
inactive: [1] 111 % of control | [2] 101 % of control | [3] 93 % of control

CNc1nc(N)nc(N)c1N1CCN(c2ccc(C(=O)NC(CCCC(=O)O)C(=O)O)cc2)CC1 (stereo unspecified)
inactive: [4] 99 % of control | [5] 100 % of control | dose: 240.0 mg/kg/injection, schedule: Q01DX005 (ip), vehicle: saline with Tween-80 95 % of control

Cc1ccc(-n2c(=S)n(-c3ccccc3C)c3nc4ccccc4nc2/c3=N\Nc2ccccc2)cc1
inactive: [4] 100 % of control | [5] 93 % of control

CC(C)(Oc1ccc(C(=O)c2ccc(Cl)cc2)cc1)C(=O)O
inactive: [1] 93 % of control | [2] 102 % of control | [3] 111 % of control

Brc1ccc(Nc2nnc3nc(-c4ccccc4)c(-c4ccccc4)nn23)cc1
inactive: dose: 50.0 mg/kg/injection, schedule: Q01DX005 (ip), vehicle: saline with Tween-80 89 % of control | dose: 100.0 mg/kg/injection, schedule: Q01DX005 (ip), vehicle: saline with Tween-80 89 % of control | dose: 200.0 mg/kg/injection, schedule: Q01DX005 (ip), vehicle: saline with Tween-80 97 % of control

COC(=O)c1n[nH]n(Cc2ccccc2)c1=O (tested in a mixture with another compound)
inactive: [6] 103 % of control | [7] 92 % of control | [8] 92 % of control

O=C1Cc2[nH]ccc2C(=O)O1
inactive: dose: 100.0 mg/kg/injection, schedule: Q01DX001 (ip), vehicle: saline with Tween-80 99 % of control | dose: 200.0 mg/kg/injection, schedule: Q01DX001 (ip), vehicle: saline with Tween-80 90 % of control | dose: 400.0 mg/kg/injection, schedule: Q01DX001 (ip), vehicle: saline with Tween-80 107 % of control

Cc1ccc(S(=O)c2ccccc2)c(C(O)(C(F)(F)F)C(F)(F)F)c1 (stereo unspecified)
inactive: dose: 100.0 mg/kg/injection, schedule: Q04DX003 (ip), vehicle: Klucel (hydroxypropylcellulose) (HPC) 91 % of control | dose: 200.0 mg/kg/injection, schedule: Q04DX003 (ip), vehicle: Klucel (hydroxypropylcellulose) (HPC) 93 % of control | dose: 400.0 mg/kg/injection, schedule: Q04DX003 (ip), vehicle: Klucel (hydroxypropylcellulose) (HPC) 94 % of control

CN1C2C=C(c3ccccc3)CC1CC2 (stereo unspecified)
inactive: dose: 0.75 mg/kg/injection, schedule: Q01DX005 (ip), vehicle: saline 94 % of control | dose: 1.5 mg/kg/injection, schedule: Q01DX005 (ip), vehicle: saline 108 % of control | dose: 1.56 mg/kg/injection, schedule: Q01DX005 (ip), vehicle: Klucel (hydroxypropylcellulose) (HPC) 105 % of control | dose: 3.0 mg/kg/injection, schedule: Q01DX005 (ip), vehicle: saline 102 % of control | dose: 3.12 mg/kg/injection, schedule: Q01DX005 (ip), vehicle: Klucel (hydroxypropylcellulose) (HPC) 103 % of control

CCOC(=O)Cc1cn2cc(Cl)cc(Cl)c2n1
inactive: dose: 100.0 mg/kg/injection, schedule: Q04DX003 (ip), vehicle: saline with Tween-80 111 % of control | dose: 200.0 mg/kg/injection, schedule: Q04DX003 (ip), vehicle: saline with Tween-80 100 % of control | dose: 400.0 mg/kg/injection, schedule: Q04DX003 (ip), vehicle: saline with Tween-80 100 % of control

O=[N+]([O-])c1ccc(Nc2ccc[n+]3c([O-])csc23)nc1
inactive: dose: 50.0 mg/kg/injection, schedule: Q01DX009 (ip), vehicle: saline 98 % of control | [2] 89 % of control | [9] 102 % of control | [3] 93 % of control

Fc1ccc2c(c1)C(Br)c1ccccc1-2 (stereo unspecified)
inactive: dose: 6.25 mg/kg/injection, schedule: Q01DX009 (ip), vehicle: saline with Tween-80 104 % of control | dose: 12.5 mg/kg/injection, schedule: Q01DX009 (ip), vehicle: saline with Tween-80 100 % of control | [10] 109 % of control

CCCCN1C(=O)/C(=C/c2ccc(OC)c(OC)c2OC)SC1=S
inactive: [1] 93 % of control | [2] 92 % of control | [3] 94 % of control

CC(C)COC1OCCCC1C(OCC(C)C)C(C)C (stereo unspecified)
inactive: [9] 108 % of control | dose: 200.0 mg/kg/injection, schedule: Q01DX009 (ip), vehicle: saline 113 % of control | dose: 400.0 mg/kg/injection, schedule: Q01DX009 (ip), vehicle: saline 99 % of control

C=C1C(=O)OC2C1C(OC(=O)/C(C)=C\C)CC(C)=C1C(=O)C3OC3(C)C12O (stereo unspecified)
inactive: dose: 12.5 mg/kg/injection, schedule: Q01DX005 (ip), vehicle: saline + alcohol 115 % of control | dose: 25.0 mg/kg/injection, schedule: Q01DX005 (ip), vehicle: saline + alcohol 116 % of control | dose: 50.0 mg/kg/injection, schedule: Q01DX005 (ip), vehicle: saline + alcohol 115 % of control

CC1CCC2(C)C(CC(O)[C@H](O)C2(C)O)C1(C)CCc1ccoc1 (stereo partly specified)
inactive: dose: 3.5 mg/kg/injection, schedule: Q01DX005 (ip), vehicle: Klucel (hydroxypropylcellulose) (HPC) 108 % of control | dose: 7.0 mg/kg/injection, schedule: Q01DX005 (ip), vehicle: Klucel (hydroxypropylcellulose) (HPC) 103 % of control | dose: 14.0 mg/kg/injection, schedule: Q01DX005 (ip), vehicle: Klucel (hydroxypropylcellulose) (HPC) 106 % of control | dose: 25.0 mg/kg/injection, schedule: Q01DX005 (ip), vehicle: Klucel (hydroxypropylcellulose) (HPC) 101 % of control | dose: 28.0 mg/kg/injection, schedule: Q01DX005 (ip), vehicle: Klucel (hydroxypropylcellulose) (HPC) 104 % of control | [6] 92 % of control | [7] 97 % of control

O=C1OC2(c3ccc(O)cc3Oc3cc(O)ccc32)C2C3C=CC(C3)C12 (stereo unspecified)
inactive: dose: 60.0 mg/kg/injection, schedule: Q01DX005 (ip), vehicle: Klucel (hydroxypropylcellulose) (HPC) 100 % of control | dose: 120.0 mg/kg/injection, schedule: Q01DX005 (ip), vehicle: Klucel (hydroxypropylcellulose) (HPC) 104 % of control | dose: 240.0 mg/kg/injection, schedule: Q01DX005 (ip), vehicle: Klucel (hydroxypropylcellulose) (HPC) 100 % of control

CN(C)C(=S)/N=C1\SCS(=O)(=O)N1C
inactive: [10] 91 % of control | [1] 110 % of control | [2] 100 % of control

CC(=O)c1ccc(C)cc1C
inactive: [10] 98 % of control | [1] 98 % of control | [2] 104 % of control and 110 % of control | [3] 118 % of control

Fc1cc(F)c(F)c(OCC2CO2)c1F (stereo unspecified)
inactive: [1] 100 % of control | [2] 94 % of control | [3] 101 % of control

Cc1cc2cc3c4c(nn5cnnc5c4c2o1)-c1ccccc1CC3
inactive: [6] 101 % of control | [7] 104 % of control | [8] 98 % of control

O=S(=O)(O)C1CC(S(=O)(=O)O)NC(S(=O)(=O)O)C1 (stereo unspecified)
inactive: dose: 50.0 mg/kg/injection, schedule: Q01DX005 (ip), vehicle: saline 99 % of control | dose: 100.0 mg/kg/injection, schedule: Q01DX005 (ip), vehicle: saline 98 % of control | dose: 200.0 mg/kg/injection, schedule: Q01DX005 (ip), vehicle: saline 94 % of control
